Our source for the IC50 and EC50 values is PMC10439158, “The net electrostatic potential and hydration of ABCG2 affect substrate transport” (Nature Communications, 2023).

As usually defined, the IC50 is the concentration that inhibits the measured activity by half. The EC50 is the concentration at which the effect is half-maximal.

The structures appear in SMILES notation. Where a chain is given by its changes, count along the chain named.

Test [1] deals with T1, ABCG2 (Homo sapiens, UniProt Q9UNQ0).
T1 sequence (Q9UNQ0 1-655): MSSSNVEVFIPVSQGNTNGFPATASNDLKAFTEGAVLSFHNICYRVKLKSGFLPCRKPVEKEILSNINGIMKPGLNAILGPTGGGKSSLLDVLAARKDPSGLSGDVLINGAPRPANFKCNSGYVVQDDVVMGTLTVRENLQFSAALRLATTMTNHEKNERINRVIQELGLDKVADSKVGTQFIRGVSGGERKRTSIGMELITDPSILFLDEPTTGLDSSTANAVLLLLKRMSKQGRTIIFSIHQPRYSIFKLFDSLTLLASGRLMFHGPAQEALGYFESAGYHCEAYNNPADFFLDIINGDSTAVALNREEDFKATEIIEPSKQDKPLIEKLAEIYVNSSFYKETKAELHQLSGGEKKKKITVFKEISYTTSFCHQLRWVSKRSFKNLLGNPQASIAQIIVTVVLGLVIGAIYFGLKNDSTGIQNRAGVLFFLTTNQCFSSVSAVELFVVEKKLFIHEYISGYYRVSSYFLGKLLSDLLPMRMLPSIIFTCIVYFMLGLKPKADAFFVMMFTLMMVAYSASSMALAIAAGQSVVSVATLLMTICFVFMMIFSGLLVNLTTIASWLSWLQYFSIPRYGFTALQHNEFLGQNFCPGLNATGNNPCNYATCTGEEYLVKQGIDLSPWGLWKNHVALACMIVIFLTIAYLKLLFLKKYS
Put plainly: cell-based. On the set-up: full-length ABCG2-WT in MEF cells; species or system MEF (mouse embryonic fibroblasts) expressing human ABCG2-WT; Inhibition of ABCG2-mediated Hoechst 33342 transport; intracellular Hoechst 33342 fluorescence accumulation. Particulars: ABCG2-WT, 0.5 uM Hoechst 33342; read-out: Hoechst 33342 transport inhibition IC50. As for the experimental part: The intracellular accumulation of fluorescent Hoechst 33342, pheophorbide a, chlorin e6, and purpurin 18, ABCG2 substrates, was used to determine the function of ABCG2. For Hoechst 33342 accumulation assay, MEFs were seeded into a 96-well black clear bottom plate (Corning #3603) at 20,000 cells/well and 0.5 μM Hoechst 33342, and either [compound left out] or the test inhibitor (0.002–10 μM) were added to the culture medium followed by incubation for 2 h at 37 °C in the dark. Thereafter, the medium was removed, and cells were washed twice with 200 μL ice-cold PBS and the fluorescence of Hoechst 33342 was then quantitatively determined with a Synergy H4 microplate reader (BioTek, Winooski, VT, USA) at an excitation wavelength of 355 nm and an emission wavelength of 460 nm. The accumulation of Hoechst 33342 was normalized to protein concentration as determined using the BCA Protein Assay Kit (Pierce, Rockford, IL, USA). […] The intracellular accumulation of pheophorbide a, purpurin 18, or chlorin e6 was measured at an excitation wavelength of 405 nm and an emission wavelength of 667 nm. […] The total radioactivity was measured by liqu Fig. 4 N436A substitution affects inhibitor interaction. a–d Representative snapshots from MDS of tariquidar interacting with ABCG2. a ABCG2-WT with residues within 4 Å of tariquidar are in surface representation. […]

Test [2] addresses T1, ABCG2. Put plainly: cell-based. Also on record: full-length ABCG2-WT in MEF cells; species or system Abcg2-KO MEFs expressing human ABCG2-WT; Inhibition of ABCG2-mediated Hoechst 33342 efflux; intracellular Hoechst 33342 fluorescence accumulation, normalized to vector control. The following applies: 0.5 uM Hoechst 33342 substrate, 2 h, 37 °C; read-out: IC50 for transport inhibition in WT. How it is done:
The intracellular accumulation of fluorescent Hoechst 33342, pheophorbide a, chlorin e6, and purpurin 18, ABCG2 substrates, was used to determine the function of ABCG2. […] Thereafter, the medium was removed, and cells were washed twice with 200 μL ice-cold PBS and the fluorescence of Hoechst 33342 was then quantitatively determined with a Synergy H4 microplate reader (BioTek, Winooski, VT, USA) at an excitation wavelength of 355 nm and an emission wavelength of 460 nm. The accumulation of Hoechst 33342 was normalized to protein concentration as determined using the BCA Protein Assay Kit (Pierce, Rockford, IL, USA). The data were normalized by the proportion accumulated relative (%) to vector control. For the time-dependent Hoechst 33342 accumulation assay, 10 μM Hoechst 33342 was treated for different time periods (0.5, 1, 1.5, 2, 5, 10, 20, 30, 60, and 90 min). Relative intracellular Hoechst 33342 levels in the MEFs were normalized to vector control at 90 min. For the other fluorescent substrate accumulation assay, 0.5 μM pheophorbide a, 5 μM chlorin e6, or 5 μM purpurin 18 were treated for 1 h at 37 °C in the dark. The intracellular accumulation of pheophorbide a, purpurin 18, or chlorin e6 was measured at an excitation wavelength of 405 nm and an emission wavelength of 667 nm. […] Thereafter, the medium was removed and cells were washed twice with 1 mL ice-cold PBS. […] The total radioactivity was measured by liqu Apparent EC50 and IC50 values were calculated from dose-response data using nonlinear regression analysis. All experiments were independently repeated at least three times. […] Non-polar residues are grey, polar residues are green, and acidic residues are red.

Test [3] concerns the target T2, ABCG2 (Homo sapiens, UniProt Q9UNQ0).
T2 construct: full-length ABCG2-WT in membrane vesicles
Put plainly: isothermal shift assay on membranes; inhibition of vanadate-sensitive ATPase in membranes; transport assay. It is filed as biochemical.

In the next test the target is T3, ABCG2 E211Q (Homo sapiens, UniProt Q9UNQ0, E211Q).
T3 construct: full-length ABCG2-WT in membrane vesicles
T3 sequence (Q9UNQ0 1-655 E211Q): T1 sequence (Q9UNQ0 1-655) with E211Q
Put plainly: biochemical. Particulars: thermal stabilization, without ATP. On the set-up: species or system ABCG2 membrane vesicles; Hoechst 33342 concentration-dependent thermal stabilization of ABCG2, western blot read-out, without ATP. From the text:
(§1) The difference between ABCG-WT and ABCG2-N436A was not due to a difference in Hoechst 33342 initial uptake, given that the initial rate of uptake was linear and the slopes virtually identical for ABCG2-WT and ABCG2-N436A (Fig. 1d). The steady-state level of Hoechst 33342 was twofold lower in ABCG2-N436A cells (Fig. 1d). Steady-state drug levels represent an equilibrium between uptake and efflux rates, which can be used to estimate the rate of drug efflux. The twofold lower steady-state level of Hoechst 33342 in cells expressing ABCG2-N436A, therefore, indicates an estimated twofold increase in efflux (Fig. 1d). Direct monitoring of Hoechst 33342 efflux is not possible because of its avidity for binding to the minor groove of DNA, leaving little free Hoechst 33342 available for assessing efflux. This effect is also responsible for Hoechst 33342’s cytotoxicity, a property that we utilized as an additional approach to assess ABCG2 transport activity. […] The greater reduction in Hoechst 33342 cytotoxicity in ABCG2-N436A may be because Hoechst 33342 cytotoxicity occurs by a dual process of DNA binding and topoisomerase inhibition, both of which promote cytotoxic DNA damage. […] Consistent with the lower EC50 value of ATP (0.3 mM) for ABCG2-N436A, ABCG2-N436A was thermally stabilized by the non-hydrolyzable ATP analog AMP-PNP at lower concentrations than ABCG2-WT

The target in another test is T4, ABCG2 K86M (Homo sapiens, UniProt Q9UNQ0, K86M).
T4 construct: full-length ABCG2-WT in membrane vesicles
T4 sequence (Q9UNQ0 1-655 K86M): T1 sequence (Q9UNQ0 1-655) with K86M
Put plainly: biochemical. On the set-up: species or system ABCG2 membrane vesicles; Hoechst 33342 concentration-dependent thermal stabilization of ABCG2, western blot read-out, without ATP. Particulars: thermal stabilization, without ATP.
Source text: as §1

Test [4] deals with T1, ABCG2. Put plainly: biochemical. On the set-up: full-length ABCG2-WT in membrane vesicles; species or system ABCG2 membrane vesicles; Hoechst 33342 concentration-dependent thermal stabilization of ABCG2, western blot read-out, without ATP. Particulars: thermal stabilization, without ATP.

Consider `CNC(=O)c1ccccc1Sc1ccc2c(/C=C/c3ccccn3)n[nH]c2c1` [Axitinib], for which, at ABCG2 [1], the IC50 worked out at 6.04 µM.
On to `COc1cc2nccc(Oc3ccc(NC(=O)C4(C(=O)Nc5ccc(F)cc5)CC4)cc3)c2cc1OC` [Cabozantinib], for which the IC50 at ABCG2 [2] turned out to be 2.4 µM.
For the compound `C#Cc1cccc(Nc2ncnc3cc(OCCOC)c(OCCOC)cc23)c1` [Erlotinib], the IC50 at ABCG2 [2] was determined as 0.77 µM.
As to `CCOc1ccc(-c2nc3cc(-c4nc5cc(N6CCN(C)CC6)ccc5[nH]4)ccc3[nH]2)cc1` [Hoechst 33342], the IC50 on ABCG2 [3] came out at 35 µM. Also, the EC50 amounted to 16 ± 3 µM on ABCG2 E211Q, 31 ± 1 µM at ABCG2 K86M and 8.8 ± 1.9 µM on ABCG2 [4].
Turning to `CNC(=O)c1cc(Oc2ccc(NC(=O)Nc3ccc(Cl)c(C(F)(F)F)c3)cc2)ccn1` [Sorafenib], the IC50 at ABCG2 [2] turned out to be 4.34 µM.
The same measure, in the same setting: the result for `CCCS(=O)(=O)Nc1ccc(F)c(C(=O)c2c[nH]c3ncc(-c4ccc(Cl)cc4)cc23)c1F` [Vemurafenib] reads 4.15 µM.
